Row | SMILES | melting point [°C]
1 | COc1cccc(-c2cc(Cl)cc3c2OC(CN)C3)c1OC (stereo unspecified) | 120 to 122
2 | COc1nc(NC(=O)NS(=O)(=O)c2ccccc2OCC#N)nn1C | 205 to 207
3 | COC(=S)c1ccncc1Cc1ccc(OC)cc1 | 99 to 100
4 | COC(=O)C1=C(C)NC(C)=C(C(=O)OC)C1c1cccc(N)c1 | 214 to 215
5 | O=C(O)C1CCc2ccccc2N1C(=O)CCS (stereo unspecified) | 130 to 132
6 | c1ccc2c(c1)NCc1c(-c3noc(C4CC4)n3)ncn1-2 | 243 to 245
7 | COc1cc(C=O)ccc1OCCCCCCO | 55 to 56
8 | O=C(CCN1CCOCC1)Nc1cc(-c2nnc(CCc3cccc(F)c3)o2)ccn1 | 149 to 150
9 | NNC(=O)CCc1cccc(F)c1 | 109 to 110
10 | CC(C)CC12CCC3C4CCC(=O)C=C4CCC3C1CCC2O (stereo unspecified) | 124 to 126
11 | CCC(N)=C(C(C)=O)C(=O)N(CCN(C)C)c1ccccc1 | 103 to 105
12 | CCCCCCCCCCCc1nc2c(O)c(NC(C)=O)cc(Cl)c2cc1CCCCCCCCCC | 120 to 121
13 | CC(=O)NC[C@H]1CN(c2ccc(N3CCC4(CC3)NCCS4)c(F)c2)C(=O)O1 | 150 to 152
14 | O=C1N(Cc2ccc(Br)cn2)c2ccccc2C12COc1cc3c(cc12)OCCO3 (stereo unspecified) | 201 to 202
15 | CC12C=CC(=O)C=C1CCC1C2CCC2(C)C(=O)CCC12 (stereo unspecified) | 138 to 139
16 | Cc1nnc2n1-c1ccc(I)cc1C(c1ccccc1F)=NC2C (stereo unspecified) | 142 to 145
17 | CCCCc1nc(Cl)c(C(=O)OC)n1Cc1ccc2oc(-c3ccccc3-c3nnn[nH]3)c(Br)c2c1 | 110 to 112
18 | Cc1cc(NS(=O)(=O)c2ccc(Nc3nc(OCC4CCCCC4)c4nc[nH]c4n3)cc2)nc(C)n1 | 233
19 | O=c1[nH]c2ncc(Br)cc2o1 | 229 to 230
20 | CCCCCCCCCCCCNC(N)=O | 105 to 107
21 | Cc1cnc(C#N)c(Cl)n1 | 63 to 65
22 | CCN(CC)CCN=C1CC(c2ccc(Cl)c(Cl)c2)Cc2c1c(=O)c1cc(Cl)ccc1n2O (stereo unspecified) | 212 to 213
23 | CCCOc1ccccc1-c1nc(OCC)cc(=O)[nH]1 | 95.5 to 97
24 | O=C1CCN(C2c3ccccc3COc3ccc(Br)cc32)CC1 (stereo unspecified) | 196 to 200

Row | SMILES | melting point [°C]
25 | N#Cc1ccc2nc3cscc3c(=O)n2c1 | 233 to 234
26 | O=C(CCl)c1ccc(Cl)c(S(=O)(=O)NC2CCCCC2)c1 | 117
27 | N#Cc1ccccc1/C=C/C=O | 107 to 110
28 | CCc1cc2c(cc1CC)C(=O)C(Cl)=CC2=O | 90 to 92
29 | COC(=O)c1cccc2c1N(CCN(C(C)C)C(C)C)C(=O)/C2=N\NC(N)=O | 192 to 195
30 | CSc1c2c(nn1C)N(c1c(C)cc(C)cc1C)CCC2 | 90.3 to 91.7
31 | CC(C)(C)OC(=O)N1CCN(c2cccc3ccoc23)CC1 | 98 to 100
32 | CC(C)(C)OC(=O)C=C1CN=C(c2ccccc2F)c2cc(Cl)ccc2N1 | 158 to 160
33 | CCOC(=O)C(=CNc1ccccc1CO)C(=O)C(C)C | 72 to 84
34 | Cc1nnc(-c2cnc3occ(-c4ccc(S(C)(=O)=O)cc4)c3c2)o1 | 251 to 252
35 | Cc1nc(N2CCCC2)nc(C)c1-c1cccc2c1OC[C@H]2Nc1ccc2c(c1)OC[C@H]2CC(=O)O | 169
36 | Cc1nn2ccccc2c1C1=NNC(=O)CC1C (stereo unspecified) | 146 to 147
37 | N#Cc1cn(C(CO)CCc2ccccc2)cn1 (stereo unspecified) | 111 to 115
38 | O=C1COc2cc(C(O)(C(F)(F)F)C(F)(F)F)ccc2N1 | 224 to 225
39 | CCN1C(=O)CC2(CNC(=O)C2)C1=O (stereo unspecified) | 168 to 169
40 | COc1cc(C2CCCCC2)ccc1C(=O)CCC(=O)O | 130 to 131
41 | O=c1c2ccc(Cl)cc2[nH]c2c(O)nn(Cc3ccsc3)c(=O)c12 | > 250
42 | C=C(CC(=O)OCC)c1cc(F)c2cc(OC)ccc2c1 | 50 to 52
43 | CC(C)(C=O)CN1CCN(CC(C)(C)C=O)C1=O | 78 to 80
44 | CC(C)n1nc(-c2cc(C(C)(C)C)c(O)c(C(C)(C)C)c2)c2cccnc21 | 147
45 | COC(=O)CC1=C(C)Cc2cc(F)c(F)cc21 | 86 to 90
46 | Fc1ccc(Nc2ncnc3cnc(OC4CCOC4)nc23)cc1Cl (stereo unspecified) | 163 to 165
47 | CCCCCCn1nnc(NC(=O)Nc2c(C(C)C)cccc2C(C)C)n1 | 154 to 156

The remaining lines, values ahead:

Row | melting point [°C] | SMILES
48 | 138 to 139 | CCOC(=O)CCc1c(-c2ccccc2)c2cc(C)c(C)cc2c(=O)n1C
49 | 186 to 188 | CCCC(=O)NCc1ccc(C(=O)O)cc1
50 | 181 to 183 | COc1ccc(-c2coc3cc(OCc4ccccc4)ccc3c2=O)cc1
51 | 151 to 153 | CN1CCC(c2n[nH]c3ccc(NC(=O)c4ccc(F)cc4)cc23)CC1
52 | 160 | COC(=O)c1cc(C(=O)c2c(C)c(-c3cccc(OCC(=O)O)c3)c3ccccn23)ccc1N
53 | 231 | O=C1Nc2ccc(C(O)c3ccc(Cl)cc3)cc2C(c2cccc(Cl)c2)N1 (stereo unspecified)
54 | 148 to 151 | O=C(CCCl)c1ccc2[nH]c3ccccc3c2c1
55 | 164 | COc1cc(Nc2nccc(NS(=O)(=O)c3ccccc3)n2)cc(OC)c1OC
56 | 147 to 148 | CCOC(=O)/C=C/c1cn(Cc2ccccc2)nc1OCc1ccc(OCc2nc(-c3ccco3)oc2C)c(OC)c1
57 | 159 to 160 | O=C(Nc1cccc(-c2ccnc3c(C(=O)c4cccs4)cnn23)c1)c1c(F)cccc1F
58 | 210 to 212 | CCOC(=O)c1c(CC(=O)O)n(-c2ccc(OC(C)C)cc2)c2ccc(Oc3ncccc3C(N)=O)cc12
59 | 176 to 180 | O=C(OC1CCCCC1)C(c1ccccc1)n1cnc2[nH]ncc2c1=O (stereo unspecified)
60 | 174 to 176 | COCc1cnc2c(NC(=O)c3c(Cl)cccc3Cl)cccc2c1OCc1cccnc1
61 | 170 to 172 | Cc1ccc(C(=O)NC(NC(=S)Nc2cccc([N+](=O)[O-])c2)c2ccccc2)cc1 (stereo unspecified)
62 | 277 to 281 | O=C(Nc1nc(-c2ccco2)c(-c2ccncc2)s1)c1cc[nH]c(=O)c1
63 | 251 to 253 | CC(=O)Nc1nc(C)c(-c2ccc(S(C)(=O)=O)cc2)s1
64 | 82 to 83 | C[Si](C)(C)c1cc(-c2ccc(F)cc2)c(-c2ccc(F)cc2)o1
65 | 120 | COC(=O)c1ccc(OC)c(NC(=N)c2ccc(F)cc2Cl)c1
66 | 248 | O=C(Nc1cccc2[nH]ccc12)c1cc(O)cc(Cl)c1
67 | 111 to 113 | Brc1cccc(Oc2ncccc2OCCCc2ccncc2)c1
68 | 105 to 109 | COC(=O)c1cc(-c2ccccc2C)c(C(=O)OC)cc1I
69 | 185 to 186 | CC(C)c1cc(-c2ccc(N)c3ccccc23)nc(N)n1
70 | 188 to 189 | O=C(Nc1ccc(OC(F)(F)F)cc1)NC1CCN(S(=O)(=O)c2ccccc2)CC1
71 | 231 to 232 | NS(=O)(=O)c1ccc(-c2[nH]c3ccccc3c2-c2ccccc2)cc1
72 | 120 to 121 | CCOC(=O)C1=C(C)NC(C)=C(C(=O)OCC)C1c1ccccc1[N+](=O)[O-]
73 | 112 to 115 | CCc1cccc(CC)c1N(Cc1c[nH]nn1)C(=O)c1ccccc1
74 | 130 | CC(=O)Nc1cc([N+](=O)[O-])ccc1OCCCCl

Row | melting point [°C] | SMILES
75 | 219 to 224 | CCc1nc2cc(C#N)c(Cl)cc2n1-c1ccc(CCNC(=O)NS(=O)(=O)c2ccc(C)cc2)cc1
76 | 162 to 163 | Cc1cccc(C)c1NCCNCC(O)COc1cccc2[nH]c3ccccc3c12 (stereo unspecified)
77 | 101 | O=C1C(CCC(O)c2ccc(F)cc2)C(c2ccc(-c3ccccc3O)cc2)N1c1ccc(F)cc1 (stereo unspecified)
78 | 260 to 262 | O=C(NCCc1ccccc1)c1c(Cl)ccc2nc(N3CCC(C(=O)O)CC3)ccc12
79 | 63 to 68 | CCCCc1ccc(S(=O)(=O)CC(O)(CS(=O)(=O)c2ccc(OC)cc2)C(=O)NO)cc1 (stereo unspecified)
80 | 108 to 109 | OCCSc1nc2ccc(Cc3ccccc3)cc2[nH]1
81 | 58 to 60 | COCCC1CCCCc2c1oc(=O)c(C(c1ccccc1)C1CC1)c2O (stereo unspecified)
82 | 148 | C=CCN(c1ccccc1CC(=O)O)c1c(Cl)cccc1Cl
83 | 144 to 148 | CS(=O)(=O)c1nnc(-c2ccccc2Nc2cccc(C(F)(F)F)c2)o1
84 | 148 to 150 | CC(CNc1ccc(Cl)cc1)COc1ccc(C(=O)O)cc1 (stereo unspecified)
85 | 157 to 158 | CN(Sc1ccccc1[N+](=O)[O-])C(=O)Nc1ccc(Cl)cc1
86 | 131 to 136 | O=CC=C(c1cccc([N+](=O)[O-])c1)c1cccc([N+](=O)[O-])c1
87 | 73 to 77 | N#Cc1c(N)cccc1Sc1ccccc1
88 | 166 | Cc1cccc(N(CC(=O)OC(C)(C)C)C(=O)CN2C(=O)c3ccccc3C2=O)c1
89 | 116 to 118 | CCCOc1ccccc1C(=O)Nc1cccnc1C(N)=O
90 | 181 to 183 | COc1ccc(C2Nc3ccccc3-c3c([N+](=O)[O-])cnn32)cc1 (stereo unspecified)
91 | 158 to 160 | CCCCNC(=O)Nc1ccc(N(CC)CC)cc1C(=O)NCC1CCN(C(c2ccccc2)c2ccccc2)CC1
92 | > 250 | O=C1NCCCC12c1ccccc1-c1ccccc12
93 | 198 to 200 | COc1ccccc1Sc1ccccc1C(=O)O
94 | 108 to 110 | Cc1nnc(F)c(-c2c(F)cc(F)cc2F)c1-c1ccc2ccccc2c1
95 | 115 to 120 | CNC(=S)NS(=O)(=O)c1cc(CCNC(=O)c2cnc3ccccc3c2)ccc1OCCOCC(F)(F)F
96 | 82 to 85 | COC(=O)c1cc(Cl)c(Oc2ccc(OC)cc2)c(Cl)c1
97 | 169 to 171 | CCc1cc(OCC(=O)O)c(C)cc1SCc1sc(-c2ccc(C(F)(F)F)cc2)nc1C
98 | 226 to 228 | CCCc1c(OCCCOc2ccc3c(=O)cc(-c4ccc(C(=O)O)cc4)oc3c2CCC)ccc(C(C)=O)c1O
99 | 298 | NS(=O)(=O)Cc1cccc(NC(=O)c2cnn3c(C(F)(F)F)cc(-c4ccc(C(F)(F)F)cc4)nc23)c1
100 | 121 to 123 | COC(=O)Cc1nsc(NC(=O)OCc2ccccc2)n1
101 | 125 to 127 | CC(=O)Nc1ccc(C(=O)c2cc(-c3ccc(Cl)cc3)c(N3CCOCC3)s2)cc1

Reference: a melting point compilation (Tetko et al.; mined from patent text by program, amines drawn as free bases though some values may be those of a salt)
